The experiment deals with T1, μ-opioid receptor (Homo sapiens, UniProt P35372).
T1 construct: expressed in transfected cells; host or cells: HEK-293
Briefly: μ-opioid receptor [35S]GTPγS functional assay. The class given is biochemical. The following applies: HEK-293 cells; for Emax: maximal effect relative to DAMGO. The procedure:
[^35S]GTPγS functional assays were conducted using freshly thawed μ-receptor membranes prepared in-house from a cell line expressing recombinant μ opioid receptor in a HEK-293, CHO or U-2 OS cell background, or purchased from a commercial source (Perkin Elmer, Shelton, Conn.; or DiscovRx, Fremont, Calif.). Assay reactions were prepared by sequentially adding the following reagents to binding buffer (100 mM NaCl, 10 mM MgCl2, 20 mM HEPES, pH 7.4) on ice (final concentrations indicated): membrane protein (0.026 mg/mL), saponin ([…]), GDP ([…]) and [^35S]GTPγS (0.20 nM; Perkin Elmer, Shelton, Conn.). The prepared membrane solution (190 μl/well) was transferred to 96-shallow well polypropylene plates containing 10 μl of 20× concentrated stock solutions of the agonist [D-Ala^2, N-methyl-Phe^4 Gly-ol^5]-enkephalin (DAMGO) prepared in dimethyl sulfoxide (DMSO). Plates were incubated for 30 min at about 25° C. with shaking. Reactions were terminated by rapid filtration onto 96-well Unifilter GF/B filter plates (Perkin Elmer, Shelton, Conn.) using a 96-well tissue harvester (Perkin Elmer, Shelton, Conn.) followed by three filtration washes with 200 μl of ice-cold wash buffer (10 mM NaH2PO4, 10 mM Na2HPO4, pH 7.4). Filter plates were subsequently dried at 50° C. for 2-3 hours. BetaScint scintillation cocktail (Perkin Elmer, Shelton, Conn.) was added (50 μl/well) and plates were counted using a Packard Top-Count for 1 min/well. Data were analyzed using the sigmoidal dose-response curve fitting functions in GraphPad PRISM v. 3.0, or an in-house function for non-linear, sigmoidal dose-response curve-fitting.
μ GTP EC50 is the concentration of a compound providing 50% of the maximal response for the compound at a μ-opioid receptor.
μ GTP Emax (%) is the maximal effect elicited by a compound relative to the effect elicited by DAMGO, a standard agonist. Generally, the μ GTP Emax (%) value measures the efficacy of a compound to treat or prevent pain or other Conditions.
In TABLE 1, activity response of certain Compounds of the Invention to the μ-opioid receptors was determined as described above for functional assays using HEK-293 cells.

Where [1] appears, read: membranes with recombinant μ opioid receptor.
[2] abbreviates: cell prints μM under an nM head.

As usually defined, the Emax is the maximal effect, on the per cent scale that the assay sets. What is called EC50 is the concentration giving half of the maximal effect.

Some results are limits rather than exact numbers.

T1 sequence (P35372 whole entry, species assumed): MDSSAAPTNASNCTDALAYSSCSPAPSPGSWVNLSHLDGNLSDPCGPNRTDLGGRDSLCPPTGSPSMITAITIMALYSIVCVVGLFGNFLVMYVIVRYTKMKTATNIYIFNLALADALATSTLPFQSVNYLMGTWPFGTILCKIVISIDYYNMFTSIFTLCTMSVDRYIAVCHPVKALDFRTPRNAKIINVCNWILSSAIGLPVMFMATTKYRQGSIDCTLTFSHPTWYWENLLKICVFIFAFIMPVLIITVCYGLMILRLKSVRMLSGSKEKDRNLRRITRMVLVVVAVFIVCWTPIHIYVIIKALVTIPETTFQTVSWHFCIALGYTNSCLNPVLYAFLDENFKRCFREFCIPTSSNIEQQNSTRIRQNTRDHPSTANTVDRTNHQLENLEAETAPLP

As for `CN1CC[C@]23CC(=O)N(Cc4ccccc4)C[C@H]2[C@H]1Cc1ccc(O)cc13` [Compound 28], the Emax was determined as 58.7 ± 4.84%. Under setting [1], the EC50 was 2.73 ± 0.392 µM.

As to `CN1CC[C@]23CCN(CC4CC4)C[C@H]2[C@H]1Cc1ccc(O)cc13` [Compound 27, (4aS,5R,10bR)-3-(cyclopropylmethyl)-13-methyl-2,3,4,4a,5,6-hexahydro-1H-5,10b-(epiminoethano)benzo[f]isoquinolin-9-ol], the Emax was 44.4 ± 2.5%. In addition, the EC50 under setting [1] came out at 14 ± 1.94 µM.

`COc1ccc2c(c1)[C@]13CCN(C)[C@H](C2)[C@@H]1CNC(=O)C3` [Compound 11, (4aS,5R,10bS)-9-methoxy-13-methyl-4,4a,5,6-tetrahydro-1H-5,10b-(epiminoethano)benzo[f]isoquinolin-2(3H)-one]: the Emax is 57.8 ± 2.68%. Under setting [2], this compound returned an EC50 of over 20 µM.

In the case of `CC(C)C(=O)N1CC[C@]23CCN(C)[C@H](Cc4ccc(O)cc42)[C@@H]3C1` [Compound 30, 1-((4aS,5R,10bS)-9-hydroxy-13-methyl-1,2,4,4a,5,6-hexahydro-3H-5,10b-(epiminoethano)benzo[f]isoquinolin-3-yl)-2-methylpropan-1-one], the Emax came to 37.2 ± 1.18%. In addition, the EC50 under setting [1] came to 0.733 ± 0.0407 µM.

For the compound `CN1CC[C@]23CC(=O)N(CC4CC4)C[C@H]2[C@H]1Cc1ccc(O)cc13` [Compound 26], the Emax was 67.7 ± 1.2%. Also, the EC50 under setting [1] amounted to 0.881 ± 0.183 µM.

`CN1CC[C@]23CCN(C(=O)C4CC4)C[C@H]2[C@H]1Cc1ccc(O)cc13` [Compound 31, Cyclopropyl ((4aS,5R,10bS)-9-hydroxy-13-methyl-1,2,4,4a,5,6-hexahydro-3H-5,10b-(epiminoethano)benzo[f]isoquinolin-3-yl)methanone] registered an Emax of 49 ± 1.53%. Also, under setting [1], the EC50 was 0.725 ± 0.0265 µM.

`CN1CC[C@]23CCN(Cc4ccc(O)cc4)C[C@H]2[C@H]1Cc1ccc(O)cc13` [Compound 23, (4aS,5R,10bR)-3-(4-hydroxybenzyl)-13-methyl-2,3,4,4a,5,6-hexahydro-1H-5,10b-(epiminoethano)benzo[f]isoquinolin-9-ol]: the Emax turned out to be 51.7 ± 2.85%. For the same compound, under setting [1], the concentration giving a half-maximal response (EC50) was 1.59 ± 0.0616 µM.

`CN1CC[C@]23CCNC[C@H]2[C@H]1Cc1ccc(O)cc13` [Compound 25, (4aS,5R,10bR)-13-methyl-2,3,4,4a,5,6-hexahydro-1H-5,10b-(epiminoethano)benzo[f]isoquinolin-9-ol] had an Emax of 43.7 ± 1.45%. The EC50 under setting [1] was found to be 8.36 ± 0.929 µM.

Compound `CN1CC[C@]23CC(=O)NC[C@H]2[C@H]1Cc1ccc(O)cc13` [Compound 24, (4aS,5R,10bS)-9-hydroxy-13-methyl-4,4a,5,6-tetrahydro-1H-5,10b-(epiminoethano)benzo[f]isoquinolin-2(3H)-one] displayed an Emax of 52 ± 2.08%. Further, the EC50 under setting [1] was 1.38 ± 0.104 µM.

`CN1CC[C@]23CCN(C(=O)Nc4ccccc4)C[C@H]2[C@H]1Cc1ccc(O)cc13` [Compound 33, (4aS,5R,10bS)-9-hydroxy-13-methyl-N-phenyl-1,2,4,4a,5,6-hexahydro-3H-5,10b-(epiminoethano)benzo[f]isoquinoline-3-carboxamide] yielded an Emax of 54.7 ± 8.35%. Moreover, under setting [1], the EC50 came to 0.152 ± 0.00519 µM.

Consider `CN1CC[C@]23CCN(C)[C@H](Cc4ccc(O)cc42)[C@@H]3C1` [Compound 32, (4aS,5R,10bR)-3,13-dimethyl-2,3,4,4a,5,6-hexahydro-1H-5,10b-(epiminoethano)benzo[f]isoquinolin-9-ol], for which the Emax is 71.7 ± 3.18%. Further, the EC50 under setting [1] was 1.07 ± 0.14 µM.

`CC(=O)N1CC[C@]23CCN(C)[C@H](Cc4ccc(O)cc42)[C@@H]3C1` [Compound 29, 1-((4aS,5R,10bS)-9-hydroxy-13-methyl-1,2,4,4a,5,6-hexahydro-3H-5,10b-(epiminoethano)benzo[f]isoquinolin-3-yl)ethan-1-one] registered an Emax of 64.7 ± 4.63%. For the same compound, the EC50 under setting [1] was 0.298 ± 0.0278 µM.

With `COc1ccc(CN2C[C@H]3[C@H]4Cc5ccc(OC)cc5[C@@]3(CCN4C)CC2=O)cc1` [Compound 8, (4aS,5R,10bS)-9-methoxy-3-(4-methoxybenzyl)-13-methyl-4,4a,5,6-tetrahydro-1H-5,10b-(epiminoethano)benzo[f]isoquinolin-2(3H)-one], the Emax turned out to be 70.3 ± 1.67%. Further, under setting [2], the EC50 is over 20 µM.

Regarding `COc1ccc(CN2CC[C@]34CCN(C)[C@H](Cc5ccc(OC)cc53)[C@@H]4C2)cc1` [Compound 9, (4aS,5R,10bR)-9-methoxy-3-(4-methoxybenzyl)-13-methyl-2,3,4,4a,5,6-hexahydro-1H-5,10b-(epiminoethano)benzo[f]isoquinoline], the Emax is 28.7 ± 1.45%. Under setting [2], this compound had an EC50 of over 20 µM.
